The source of these data is patent US20230348369A1 (Cytokinetics, Inc., priority 2020, published 2023).

Molecules are shown by their SMILES. pEC50: −log10 of the molar value. Like-named read-outs stand apart in the source and are kept apart here.

This assay concerns the target human NAMPT (Homo sapiens, UniProt P43490). The experiment in a line: Human recombinant enzyme assay (NMN fluorescence biochemical assay, activation of NAMPT). Summed up: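 Activation of recombinant human NAMPT (6 nM) with 2.5 mM ATP, 20 μM PRPP and 150 μM nicotinamide in 50 mM HEPES pH 7.2, 1 mM DTT, 1 mM CHAPS, 50 mM NaCl, 100 mM MgCl2; 60 min, ambient temperature. NMN formed was derivatized with acetophenone/KOH/formic acid, fluorescence read at 355/460 nm after 40 min.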

The mark [1] stands for this setting: Table A, human recombinant NAMPT, NMN formation, 60 min.
Where [2] appears, read: Table A, human recombinant NAMPT, NMN formation, 60 min, read-out: EC50 Human.

Sequence of human NAMPT (P43490 whole entry): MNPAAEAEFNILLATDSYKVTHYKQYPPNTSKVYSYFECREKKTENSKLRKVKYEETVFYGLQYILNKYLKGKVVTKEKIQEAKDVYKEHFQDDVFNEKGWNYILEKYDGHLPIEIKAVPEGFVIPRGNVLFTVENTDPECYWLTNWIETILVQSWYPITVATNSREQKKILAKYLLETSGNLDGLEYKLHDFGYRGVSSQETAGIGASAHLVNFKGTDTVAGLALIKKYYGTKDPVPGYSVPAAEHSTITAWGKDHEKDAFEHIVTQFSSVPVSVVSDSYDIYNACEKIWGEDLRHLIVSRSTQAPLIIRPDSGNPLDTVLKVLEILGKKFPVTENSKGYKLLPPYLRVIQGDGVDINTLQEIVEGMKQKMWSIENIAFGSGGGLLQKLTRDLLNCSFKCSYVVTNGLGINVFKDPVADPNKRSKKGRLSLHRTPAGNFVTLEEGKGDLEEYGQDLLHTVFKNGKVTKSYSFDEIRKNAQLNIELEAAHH

As to `O=C(NCc1ccc(Cl)cc1)NC1CC2(C1)CC(NC(=O)c1ccncc1)C2` (stereo not shown) [Compound 185, N-(6-(3-(4-chlorobenzyl)ureido)spiro[3.3]heptan-2-yl)isonicotinamide], the “AC1.4 Human” value under setting [1] turned out to be 11.6 µM. Besides, under setting [2], the negative-log EC50 (pEC50) (commonly the EC50 on a negative log10 scale, so that one unit is a factor of ten) was 4.66.

On to `Cc1cc(C(=O)NC2CC3(CC(NC(=O)NCc4ccc(Cl)cc4)C3)C2)ccn1` (stereo not shown) [Compound 186, N-(6-(3-(4-chlorobenzyl)ureido)spiro[3.3]heptan-2-yl)-2-methylisonicotinamide], for which the “AC1.4 Human” value under setting [1] was 16.0 µM. Further, the pEC50 under setting [2] is 4.27.

As for `COc1ccc(CNC(=O)NC2CC3(C2)CN(C(=O)c2cccc(N4CCCC4=O)c2)C3)cc1` [Compound 188, 1-(4-methoxybenzyl)-3-(2-(3-(2-oxopyrrolidin-1-yl)benzoyl)-2-azaspiro[3.3]heptan-6-yl)urea], the “AC1.4 Human” value under setting [1] amounted to 0.9 µM. Moreover, under setting [2], the pEC50 is 4.87.

Regarding `COc1ccc(CNC(=O)NC2CC3(C2)CN(C(=O)c2cccc(-n4cccc4)c2)C3)cc1` [Compound 189, 1-(2-(3-(1H-pyrrol-1-yl)benzoyl)-2-azaspiro[3.3]heptan-6-yl)-3-(4-methoxybenzyl)urea], the “AC1.4 Human” value under setting [1] was determined as 1.4 µM. Besides, the negative-log EC50 (pEC50) under setting [2] is 4.67.

`COc1ccc(CNC(=O)NC2CC3(C2)CN(C(=O)c2cccc(N4CCCCC4)c2)C3)cc1` [Compound 190, 1-(4-methoxybenzyl)-3-(2-(3-(piperidin-1-yl)benzoyl)-2-azaspiro[3.3]heptan-6-yl)urea]: the “AC1.4 Human” value under setting [1] worked out at 1.8 µM. In addition, the pEC50 under setting [2] was 4.47.

As for `COc1ccc(CNC(=O)NC2CC3(C2)CN(C(=O)c2cccc(N4CCOCC4)c2)C3)cc1` [Compound 191, 1-(4-methoxybenzyl)-3-(2-(3-morpholinobenzoyl)-2-azaspiro[3.3]heptan-6-yl)urea], the “AC1.4 Human” value under setting [1] is 1.3 µM. Under setting [2], the pEC50 is 4.62.

Turning to `Cc1ccc(C(=O)NC2CC3(CC(NC(=O)NCc4ccc(Cl)cc4)C3)C2)cn1` (stereo not shown) [Compound 192, N-(6-(3-(4-chlorobenzyl)ureido)spiro[3.3]heptan-2-yl)-6-methylnicotinamide], the “AC1.4 Human” value under setting [1] worked out at 12.1 µM. Besides, the negative-log EC50 (pEC50) under setting [2] was 4.28.

For the molecule `Cc1ccccc1C(=O)NC1CC2(CC(NC(=O)NCc3ccc(Cl)cc3)C2)C1` (stereo not shown) [Compound 193, N-(6-(3-(4-chlorobenzyl)ureido)spiro[3.3]heptan-2-yl)-2-methylbenzamide], under setting [1], the “AC1.4 Human” value is 3.6 µM. Also, the pEC50 under setting [2] is 4.84.

Consider `COc1cccc(C(=O)NC2CC3(CC(NC(=O)NCc4ccc(Cl)cc4)C3)C2)c1` (stereo not shown) [Compound 194, N-(6-(3-(4-chlorobenzyl)ureido)spiro[3.3]heptan-2-yl)-3-methoxybenzamide], for which the “AC1.4 Human” value under setting [1] worked out at 8.8 µM. For the same molecule, the pEC50 under setting [2] is 5.23.

For `CS(=O)(=O)c1cccc(C(=O)NC2CC3(CC(NC(=O)NCc4ccc(Cl)cc4)C3)C2)c1` (stereo not shown) [Compound 195, N-(6-(3-(4-chlorobenzyl)ureido)spiro[3.3]heptan-2-yl)-3-(methylsulfonyl)benzamide], the “AC1.4 Human” value under setting [1] was 17.1 µM. Further, the pEC50 under setting [2] is 4.63.

Take `CC(C)(C)OC(=O)N1CC2(CC(NC(=O)NCc3ccc(Cl)cc3)C2)C1` [Compound 197, tert-butyl 6-(3-(4-chlorobenzyl)ureido)-2-azaspiro[3.3]heptane-2-carboxylate]: under setting [1], the “AC1.4 Human” value came to 3.7 µM. In addition, the negative logarithm of the EC50 (pEC50) under setting [2] was 4.87.

Consider `O=C(NCc1ccc(Cl)cc1)NC1CC2(C1)CC(NC(=O)c1cccc(O)c1)C2` (stereo not shown) [Compound 200, N-(6-(3-(4-chlorobenzyl)ureido)spiro[3.3]heptan-2-yl)-3-hydroxybenzamide], for which, under setting [1], the “AC1.4 Human” value is 17.1 µM. Further, the pEC50 under setting [2] is 4.74.

For `Cc1cnccc1C(=O)NC1CC2(CC(NC(=O)NCc3ccc(Cl)cc3)C2)C1` (stereo not shown) [Compound 204, N-(6-(3-(4-chlorobenzyl)ureido)spiro[3.3]heptan-2-yl)-3-methylisonicotinamide], the “AC1.4 Human” value under setting [1] came to 13.6 µM. For the same molecule, the pEC50 under setting [2] was 4.57.

As for `Cc1ccncc1C(=O)NC1CC2(CC(NC(=O)NCc3ccc(Cl)cc3)C2)C1` (stereo not shown) [Compound 205, N-(6-(3-(4-chlorobenzyl)ureido)spiro[3.3]heptan-2-yl)-4-methylnicotinamide], the “AC1.4 Human” value under setting [1] was 10.0 µM. Also, the pEC50 under setting [2] is 4.63.

On to `Cc1ccc(C(=O)N2CC3(CC(NC(=O)NCc4ccc(F)cc4)C3)C2)cc1` [Compound 207, 1-(4-fluorobenzyl)-3-(2-(4-methylbenzoyl)-2-azaspiro[3.3]heptan-6-yl)urea], for which the “AC1.4 Human” value under setting [1] was 13.7 µM. Under setting [2], the pEC50 is 5.18.

For the molecule `O=C(NCc1ccc(Cl)cc1)NC1CC2(C1)CC(NC(=O)c1ccccc1O)C2` (stereo not shown) [Compound 208, N-(6-(3-(4-chlorobenzyl)ureido)spiro[3.3]heptan-2-yl)-2-hydroxybenzamide], the “AC1.4 Human” value under setting [1] amounted to 9.6 µM. The pEC50 under setting [2] is 4.93.

Turning to `CN(C)c1ccccc1C(=O)NC1CC2(CC(NC(=O)NCc3ccc(Cl)cc3)C2)C1` (stereo not shown) [Compound 209, N-(6-(3-(4-chlorobenzyl)ureido)spiro[3.3]heptan-2-yl)-2-(dimethylamino)benzamide], the “AC1.4 Human” value under setting [1] came out at 10.6 µM. Under setting [2], the negative logarithm of the EC50 (pEC50) is 4.41.

For `O=C(NCc1ccc(Cl)cc1)NC1CC2(C1)CC(NS(=O)(=O)c1cccnc1)C2` (stereo not shown) [Compound 213, N-(6-(3-(4-chlorobenzyl)ureido)spiro[3.3]heptan-2-yl)pyridine-3-sulfonamide], under setting [1], the “AC1.4 Human” value came out at 6.8 µM. Besides, the pEC50 under setting [2] is 5.17.

`Cc1ccc(C(=O)N2CC3(CC(NC(=O)NCc4ccc(C(N)=O)nc4)C3)C2)cc1` [Compound 215, 5-((3-(2-(4-methylbenzoyl)-2-azaspiro[3.3]heptan-6-yl)ureido)methyl)picolinamide]: the “AC1.4 Human” value under setting [1] is 3.6 µM. Moreover, the pEC50 under setting [2] is 4.51.

With `O=C(NCc1ccc(Cl)cc1)NC1CC2(C1)CN(S(=O)(=O)c1ccccc1Cl)C2` [Compound 216, 1-(4-chlorobenzyl)-3-(2-((2-chlorophenyl)sulfonyl)-2-azaspiro[3.3]heptan-6-yl)urea], the “AC1.4 Human” value under setting [1] is 4.9 µM. Also, the pEC50 under setting [2] was 4.68.

`O=C(NCc1ccc(Cl)cc1)NC1CC2(C1)CN(S(=O)(=O)c1cccc(Cl)c1)C2` [Compound 217, 1-(4-chlorobenzyl)-3-(2-((3-chlorophenyl)sulfonyl)-2-azaspiro[3.3]heptan-6-yl)urea]: under setting [1], the “AC1.4 Human” value amounted to 19.2 µM. Under setting [2], the pEC50 is 4.70.

Consider `COc1ccccc1S(=O)(=O)N1CC2(CC(NC(=O)NCc3ccc(Cl)cc3)C2)C1` [Compound 218, 1-(4-chlorobenzyl)-3-(2-((2-methoxyphenyl)sulfonyl)-2-azaspiro[3.3]heptan-6-yl)urea], for which the “AC1.4 Human” value under setting [1] came to 13.2 µM. Further, the negative-log EC50 (pEC50) under setting [2] was 4.65.

As to `O=C(NCc1ccc(Cl)cc1)NC1CC2(C1)CN(C(=O)c1cccc(-n3cccc3)c1)C2` [Compound 219, 1-(2-(3-(1H-pyrrol-1-yl)benzoyl)-2-azaspiro[3.3]heptan-6-yl)-3-(4-chlorobenzyl)urea], the “AC1.4 Human” value under setting [1] is 2.9 µM. The pEC50 under setting [2] is 5.28.

For `CC(C)c1cccc(C(=O)N2CC3(CC(NC(=O)NCc4ccc(Cl)cc4)C3)C2)c1` [Compound 220, 1-(4-chlorobenzyl)-3-(2-(3-isopropylbenzoyl)-2-azaspiro[3.3]heptan-6-yl)urea], the “AC1.4 Human” value under setting [1] is 3.6 µM. Further, under setting [2], the pEC50 is 5.33.

Regarding `CC(C)(C(=O)N1CC2(CC(NC(=O)NCc3ccc(Cl)cc3)C2)C1)c1ccccc1` [Compound 221, 1-(4-chlorobenzyl)-3-(2-(2-methyl-2-phenylpropanoyl)-2-azaspiro[3.3]heptan-6-yl)urea], the negative-log EC50 (pEC50) is 5.34. In addition, the “AC1.4 Human” value under setting [1] came to 1.1 µM.

In the case of `NC(=O)c1ccc(CNC(=O)NC2CC3(C2)CN(C(=O)c2cccc(N4CCCC4)c2)C3)cc1` [Compound 222, 4-((3-(2-(3-(pyrrolidin-1-yl)benzoyl)-2-azaspiro[3.3]heptan-6-yl)ureido)methyl)benzamide], the “AC1.4 Human” value under setting [1] stood at 0.2 µM. Further, the pEC50 under setting [2] was 4.54.

`NC(=O)c1ccc(CNC(=O)NC2CC3(C2)CN(C(=O)c2cncc(N4CCCC4)c2)C3)cc1` [Compound 223, 4-((3-(2-(5-(pyrrolidin-1-yl)nicotinoyl)-2-azaspiro[3.3]heptan-6-yl)ureido)methyl)benzamide]: the “AC1.4 Human” value under setting [1] was 0.2 µM. Moreover, under setting [2], the negative logarithm of the EC50 (pEC50) was 4.41.

On to `NC(=O)c1ccc(CNC(=O)NC2CC3(C2)CN(C(=O)c2ccc(Cl)cc2)C3)cc1` [Compound 224, 4-((3-(2-(4-chlorobenzoyl)-2-azaspiro[3.3]heptan-6-yl)ureido)methyl)benzamide], for which the “AC1.4 Human” value under setting [1] worked out at 0.6 µM. Also, the negative-log EC50 (pEC50) under setting [2] is 4.32.

Regarding `Cc1ccc(C(=O)N2CC3(CC(NC(=O)NCc4ccc(C(N)=O)cc4)C3)C2)cn1` [Compound 225, 4-((3-(2-(6-methylnicotinoyl)-2-azaspiro[3.3]heptan-6-yl)ureido)methyl)benzamide], the “AC1.4 Human” value under setting [1] was determined as 2.0 µM. Also, the pEC50 under setting [2] is 4.29.

Take `Cc1cc(C(=O)N2CC3(CC(NC(=O)NCc4ccc(C(N)=O)cc4)C3)C2)ccn1` [Compound 226, 4-((3-(2-(2-methylisonicotinoyl)-2-azaspiro[3.3]heptan-6-yl)ureido)methyl)benzamide]: the “AC1.4 Human” value under setting [1] turned out to be 2.9 µM. In addition, the pEC50 under setting [2] is 4.50.

Regarding `Cc1ccc(C(=O)N2CC3(CC(NC(=O)NCc4cn[nH]c4)C3)C2)cc1` [Compound 227, 1-((1H-pyrazol-4-yl)methyl)-3-(2-(4-methylbenzoyl)-2-azaspiro[3.3]heptan-6-yl)urea], the “AC1.4 Human” value under setting [1] was 2.0 µM. Under setting [2], the negative-log EC50 (pEC50) is 4.47.

With `Cc1ccc(C(=O)N2CC3(CC(NC(=O)NCc4cocn4)C3)C2)cc1` [Compound 228, 1-(2-(4-methylbenzoyl)-2-azaspiro[3.3]heptan-6-yl)-3-(oxazol-4-ylmethyl)urea], under setting [1], the “AC1.4 Human” value turned out to be 1.9 µM. Besides, the pEC50 under setting [2] is 4.41.
